Reference: PMC3076090 (Pharmaceutical research, 2010)
Where two headings read alike, the source gives them in different places.

Tests used:
[1] = pKa determination at 37°C; format: physicochemical
[2] = system: blood-brain barrier; conditions: pH 7.4; S = 100 cm^2·g^−1; rat; cited from earlier work
[3] = system: blood-brain barrier; conditions: mouse in situ brain perfusion; cited from earlier work
[4] = measured octanol-water partition coefficients from multiple sources; cited from earlier work
[5] = intrinsic PAMPA permeability, 10% porcine brain extract lipids in alkane; cited from earlier work
[6] = system: blood-brain barrier; assay: in situ rat brain perfusion, pH-dependent; conditions: for Kin: 30-s perfusion; for PcS (pH-CRE): new pH-CRE method; for log(Kin/S) (= log Pe): S = 100 cm^2·g^−1; for PcS (CRE): traditional Crone-Renkin equation; for Fpf (cerebrovascular flow velocity refined from the compound's Kin-pH data): weighted nonlinear regression, Eq. 4
[7] = system: blood-brain barrier; conditions: male, Sprague-Dawley, rat, 30 s
[8] = system: blood-brain barrier; conditions: typical values; cited from earlier work

CN(C)CCC=C1c2ccccc2CCc2ccccc21 [Amitriptyline]
pKa [1]: 8.92 ± 0.1
log(Kin/S) (= log Pe) [2]: −3.27 ± 0.06 cm·s^−1
Pgp effect ratio Kin^knockout/Kin^wildtype [3]: 1.0
log POCT [4]: 4.6
log Po^PAMPA−BBB [5]: −1.2
Kin ([6]; dosing group B-1, pH 8.0, 10 mM bicine in KRB): 0.044 ± 0.013 mL/g/s
Kin ([6]; dosing group B-2, pH 8.5, 10 mM bicine in KRB): 0.045 ± 0.014 mL/g/s
PcS (pH-CRE) ([6]; pH 7.4): 2997
log(Kin/S) (= log Pe) ([6]; pH 8.0, this work): −3.35 ± 0.13 cm·s^−1
PcS (pH-CRE) ([6]; pH 8.0): 10,974
PcS (CRE) ([6]; pH 8.0): 549
log(Kin/S) (= log Pe) ([6]; pH 8.5, this work): −3.35 ± 0.13 cm·s^−1
PcS (pH-CRE) ([6]; pH 8.5): 28,173
Fpf (cerebrovascular flow velocity refined from the compound's Kin-pH data) [6]: 0.051 ± 0.003 mL.g^−1.s^−1

Cc1cc(=O)n(-c2ccccc2)n1C [Antipyrine]
Kin (range over dosing groups) ([7]; in vivo, pH 5.5): 0.0042 to 0.0082 mL/g/s
PcS (CRE) ([7]; in vivo, pH 5.5): 63
PcS (pH-CRE) ([7]; in vivo, pH 5.5): 77
PcS (CRE) ([7]; in vivo, pH 6.5): 54
PcS (pH-CRE) ([7]; in vivo, pH 6.5): 77
Kin ([7]; in vivo, pH 7.4): 82 ± 23 10^−4 mL.g^−1.s^−1
PcS (CRE) ([7]; in vivo, pH 7.4): 92
PcS (pH-CRE) ([7]; in vivo, pH 7.4): 77
PcS (CRE) ([7]; in vivo, pH 8): 80
PcS (pH-CRE) ([7]; in vivo, pH 8): 77
PcS (CRE) ([7]; in vivo, pH 8.5): 70
PcS (pH-CRE) ([7]; in vivo, pH 8.5): 77
log Po (intrinsic, neutral molecule, luminal permeability) ([7]; po): −4.13 ± 0.02 cm.s^−1
log POCT [4]: 0.6
log Po^PAMPA−BBB [5]: −5.3

CNCC[C@@H](Oc1ccccc1C)c1ccccc1 [Atomoxetine]
pKa [1]: 9.5 ± 0.05
log(Kin/S) (= log Pe) [2]: −3.49 ± 0.12 cm·s^−1
log POCT [4]: 3.3
log Po^PAMPA−BBB [5]: −1.8
Kin ([6]; dosing group B-3, pH 8.0, 10 mM bicine in KRB): 0.026 ± 0.010 mL/g/s
Kin ([6]; dosing group B-4, pH 8.5, 10 mM bicine in KRB, no CsA): 0.032 ± 0.015 mL/g/s
PcS (pH-CRE) ([6]; pH 7.4): 805
log(Kin/S) (= log Pe) ([6]; pH 8.0, this work): −3.59 ± 0.16 cm·s^−1
PcS (pH-CRE) ([6]; pH 8.0): 3134
PcS (CRE) ([6]; pH 8.0): 549
log(Kin/S) (= log Pe) ([6]; pH 8.5, this work): −3.50 ± 0.20 cm·s^−1
PcS (pH-CRE) ([6]; pH 8.5): 9295
Fpf (cerebrovascular flow velocity refined from the compound's Kin-pH data) [6]: 0.031 ± 0.002 mL.g^−1.s^−1

CN(C)CCCN1c2ccccc2CCc2ccccc21 [Imipramine]
pKa [1]: 9.23 ± 0.06
Kin ([6]; dosing group B-5, pH 7.4, KRB): 0.031 ± 0.021 mL/g/s
Kin ([6]; dosing group B-6, pH 8.5, 10 mM bicine in KRB): 0.032 ± 0.002 mL/g/s
PcS (pH-CRE) ([6]; pH 7.4): 1416
PcS (CRE) ([6]; pH 7.4): 1437
PcS (pH-CRE) ([6]; pH 8.5): 15,260
PcS (CRE) ([6]; pH 8.5): 2150
Fpf (cerebrovascular flow velocity refined from the compound's Kin-pH data) [6]: 0.032 mL.g^−1.s^−1

COc1ccc2c(c1)c(CC(=O)O)c(C)n2C(=O)c1ccc(Cl)cc1 [Indomethacin]
log POCT [4]: 3.5
log Po^PAMPA−BBB [5]: −2.7
Kin ([6]; dosing group A-1, pH 5.5, 10 mM MES in KRB): 0.032 ± 0.008 mL/g/s
Kin ([6]; dosing group A-2, pH 6.5, 10 mM MES in KRB): 0.004 ± 0.001 mL/g/s
Kin ([6]; dosing group A-2, pH 6.5, 10 mM MES in KRB, listed as indomethacin): 0.0042 ± 0.0008 mL/g/s
log(Kin/S) (= log Pe) ([6]; pH 5.5, this work): −3.50 ± 0.10 cm·s^−1
PcS (pH-CRE) ([6]; pH 5.5): 399
PcS (CRE) ([6]; pH 5.5): 400
log(Kin/S) (= log Pe) ([6]; pH 6.5, this work (sertraline with 5 µM CsA)): −4.39 ± 0.08 cm·s^−1
PcS (pH-CRE) ([6]; pH 6.5): 42
PcS (CRE) ([6]; pH 6.5): 42
Fpf (cerebrovascular flow velocity refined from the compound's Kin-pH data) [6]: 0.081 mL.g^−1.s^−1

CNCCCC12CCC(c3ccccc31)c1ccccc12 [Maprotiline]
pKa [1]: 10.01 ± 0.01
log POCT [4]: 5.1
log Po^PAMPA−BBB [5]: −0.6
Kin ([6]; dosing group B-7, pH 8.0, 10 mM bicine in KRB): 0.052 ± 0.011 mL/g/s
Kin ([6]; dosing group B-8, pH 8.5, 10 mM bicine in KRB): 0.036 ± 0.013 mL/g/s
log(Kin/S) (= log Pe) ([6]; pH 7.4, this work): −3.48 ± 0.11 cm·s^−1
PcS (pH-CRE) ([6]; pH 7.4): 591
PcS (CRE) ([6]; pH 7.4): 580
log(Kin/S) (= log Pe) ([6]; pH 8.0, this work): −3.29 ± 0.09 cm·s^−1
PcS (pH-CRE) ([6]; pH 8.0): 2335
log(Kin/S) (= log Pe) ([6]; pH 8.5, this work): −3.44 ± 0.15 cm·s^−1
PcS (pH-CRE) ([6]; pH 8.5): 7234
PcS (CRE) ([6]; pH 8.5): 691
Fpf (cerebrovascular flow velocity refined from the compound's Kin-pH data) [6]: 0.047 ± 0.006 mL.g^−1.s^−1

CN[C@H]1CC[C@@H](c2ccc(Cl)c(Cl)c2)c2ccccc21 [Sertraline]
log POCT [4]: 4.9

OC[C@H]1O[C@@](CO)(O[C@H]2O[C@H](CO)[C@@H](O)[C@H](O)[C@H]2O)[C@@H](O)[C@@H]1O [sucrose]
in vivo Pc (paracellular) [8]: about 0.15 10^−6 cm·s^−1

inulin
in vivo Pc (paracellular) [8]: ~0.04 10^−6 cm·s^−1
